Results published in US8796245B2 (TetraPhase Pharmaceuticals, Inc., priority 2008, dated 2014).
In brackets after ≈: the same amount, converted by molar mass.

Assays:
[1] = test system: S. aureus isolate, ATCC 13709; experiment: ED50 IV study, mouse systemic infection model; assay type: in vivo; conditions: Staphylococcus aureus, ATCC13709, mg/kg required to protect 50% of mice in septicemia model with S. aureus Smith strain, 60 minutes post infection, 48 hour survival
Description: (§1) Compounds of the present invention were evaluated for efficacy in a mouse systemic infection model against a susceptible S. aureus isolate, ATCC 13709. Mice were infected via intraperitoneal injection with a bacterial load that would result in 0% survival within 48 hours after infection. Mice received the test compounds 60 minutes post infection via intravenous injection. […] Survival was assessed over a 48 hour period. Percent survival was calculated and PD50 values determined using Probit analysis.

[2] = test system: S. aureus SA161, a tetracycline-resistant strain; experiment: Tet-R sepsis study, mouse systemic infection model; assay type: in vivo; conditions: mg/kg required to protect 50% of mice in septicemia model with tetracycline-resistant S. aureus strain
Description: as §1
The protocol for tetracycline-resistance sepsis study was similar to the protocol for EV50 IV study described above except the infection model used S. aureus SA161, a tetracycline-resistant strain.

[3] = test system: E. coli ATCC 25922; experiment: GN sepsis study, mouse systemic infection model; assay type: in vivo; conditions: mg/kg required to protect 50% of mice in septicemia model with E. coli strain
Description: as §1, with “analysis. The protocol for GN sepsis study was similar to the protocol for EV50 IV study described above except the infection model used E. coli ATCC 25922.” for “analysis.”

[4] = Metabolic stability, pooled human microsome assay; assay type: in vitro ADME; conditions: % compound remaining after 60 min, 37° C. incubation with human liver microsomes
Description: A stock solution of the test compounds were prepared by dissolving the compound in DMSO to a final concentration of 1.0 mg/mL. The analytes and internal standard were diluted and infused into the LC/MS system to determine optimal ionization, polarity and MS/MS fragmentation for selection of specific MRM (multiple reaction monitoring) transitions. Generic chromatographic conditions were developed with a less than 5 minute cycle time. Pooled human microsome assays were conducted at 0.2 mg/mL protein with an NADPH generating cofactor system (1.3 mM NADP+, 3.3 mM glucose-6-phosphate, 0.4 U/mL glucose-6-phosphate dehydrogenase, and 3.3 mM magnesium chloride). Test compounds were diluted from DMSO stocks to 1 μM reaction concentrations. Time points were removed at 0 and 60 minutes. After a protein crash with acetonitrile, samples are analyzed by LC/MS/MS. Peak areas are compared to the time 0 sample, and the percent analyte remaining is calculated. A reaction containing no cofactor was used to control for analyte loss due to non-specific binding, thermal degradation and solubility.

[5] = test system: clinical isolates of S. aureus; experiment: SA MIC90; assay type: cell-based; conditions: Staphylococcus aureus; inhibit 90% of S. aureus clinical isolates (n = 20); read-out: SA MIC 90
Description: Twenty randomly selected clinical isolates of S. aureus were used to determine the minimal inhibitory concentration (MIC) of test compounds for 90% of the isolates (MIC90). MICs were performed by microtiter broth dilution in a 96-well format according to Clinical Laboratory Standards Institute (CLSI) guidelines, as described above. Viable counts were determined by 10-fold serial dilution. Dilutions were prepared in sterile 0.9% NaCl. Ten microliters of the inoculum and of each of 5 dilutions were plated onto blood or Mueller Hinton agar plates, incubated overnight at 37° C. with 5% CO2, and counted.

[6] = test system: tetracycline-resistant S. aureus; experiment: TetR MIC90; assay type: cell-based; conditions: Staphylococcus aureus; inhibit 90% of tetracycline-resistant S. aureus (n = 10); read-out: TetR MIC 90
Description: (§2) Twenty randomly selected clinical isolates of S. aureus were used to determine the minimal inhibitory concentration (MIC) of test compounds for 90% of the isolates (MIC90). MICs were performed by microtiter broth dilution in a 96-well format according to Clinical Laboratory Standards Institute (CLSI) guidelines, as described above.

[7] = test system: clinical isolates of E. coli; experiment: EC MIC90; assay type: cell-based; conditions: Escherichia coli; inhibit 90% of E. coli clinical isolates (n = 20); read-out: EC MIC 90
Description: as §2, with “above. Twenty randomly selected clinical isolates of E. coli were used to determine the MIC90 as described above.” for “above.”

[8] = Protein binding in human plasma (RED devices); assay type: in vitro ADME; conditions: % Protein binding in human plasma with compound at 10 uM
Description: Test compounds were prepared as 1.0 mg/mL stock solutions in DMSO. The analytes and internal standard were diluted and infused into the LC/MS system to determine optimal ionization, polarity and MS/MS fragmentation for selection of specific MRM (multiple reaction monitoring) transitions. Generic chromatographic conditions were developed with a less than 5 minute cycle time.
[…] The time point was removed at the end of the incubation period. After a protein crash with acetonitrile, the samples were analyzed by LC/MS/MS. Peak areas for the buffer (receiver) and sample (donor) chambers were compared and the protein bound fraction is calculated. Analysis was conducted in duplicate.

[9] = test system: S. aureus ATCC 13709; experiment: Thigh burden, neutropenic mouse thigh infection; assay type: in vivo; conditions: maximum log10 reduction in bacteria compared to untreated control, achieved at tested doses; neutropenic mice, IV
Description: Female CD-1 mice were pre-treated with cyclophosphamide to render the mice neutropenic. Mice were infected with S. aureus ATCC 13709 via injection into the right thigh muscle of 0.1 ml per mouse. One and a half hours post infection mice were treated IV with test compounds in doses ranging from 0.3 to 30 mg/kg or 0.3 to 20 mg/kg. Four mice were treated with each drug concentration. Twenty-four hours post treatment, mice were euthanized by CO2 inhalation. The right thighs of the mice were aseptically removed, weighed, homogenized, serially diluted, and plated on TSA medium. The plates were incubated overnight at 37° C. in 5% CO2. Colony forming units per gram of thigh was calculated by enumerating the plated colonies then adjusting for serial dilutions and the weight of the thigh.

Compound | ED50 [1] [mg/kg] | TetR sepsis [2] [mg/kg] | GN sepsis [3] [mg/kg] | Meta Stab % [4] [%] | MIC90 [5] [µg/mL] | MIC90 [6] [µg/mL] | MIC90 [7] [µg/mL] | Prot Bind % [8] [%] | Thigh Burden [9] [log10 decrease]
CC(C)CNCC(=O)Nc1cc(F)c2c(c1O)C(=O)C1=C(O)[C@]3(O)C(=O)C(C(N)=O)=C(O)[C@@H](N(C)C)[C@@H]3C[C@@H]1C2 [drawing 215] | 0.55 | 3.5 | 14.3 | 72 | 0.03 (≈ 0.0535 µM) | 4 (≈ 7.14 µM) | 1 (≈ 1.78 µM) | 95.6 | 5.01
CN(C)c1cc(NC(=O)CNC(C)(C)C)c(O)c2c1C[C@H]1C[C@H]3[C@H](N(C)C)C(O)=C(C(N)=O)C(=O)[C@@]3(O)C(O)=C1C2=O | 0.97 | 0.55 | 2.1 | 55 | 0.06 (≈ 0.102 µM) | 1 (≈ 1.71 µM) | 0.5 (≈ 0.854 µM) | 69.1 | 4.89
CC(C)NCC(=O)Nc1cc(F)c2c(c1O)C(=O)C1=C(O)[C@]3(O)C(=O)C(C(N)=O)=C(O)[C@@H](N(C)C)[C@@H]3C[C@@H]1C2 [drawing 219] | 0.3 | – | – | 96 | 0.06 (≈ 0.11 µM) | 2 (≈ 3.66 µM) | 1 (≈ 1.83 µM) | 96.9 | –
CN(C)CC(=O)Nc1cc(F)c2c(c1O)C(=O)C1=C(O)[C@]3(O)C(=O)C(C(N)=O)=C(O)[C@@H](N(C)C)[C@@H]3C[C@@H]1C2 [drawing 220] | 0.073 | 0.62 | 4.3 | 109 | 0.06 (≈ 0.113 µM) | 4 (≈ 7.51 µM) | 4 (≈ 7.51 µM) | 93.6 | 4.12
CN(C)[C@@H]1C(O)=C(C(N)=O)C(=O)[C@@]2(O)C(O)=C3C(=O)c4c(O)c(NC(=O)CN5CCCC5)cc(F)c4C[C@H]3C[C@@H]12 [drawing 217] | 0.3 | 1 | 4.36 | 86 | 0.03 (≈ 0.0537 µM) | 2 (≈ 3.58 µM) | 0.5 (≈ 0.895 µM) | 79.4 | 5.24
CN(C)[C@@H]1C(O)=C(C(N)=O)C(=O)[C@@]2(O)C(O)=C3C(=O)c4c(O)c(NC(=O)CNC(C)(C)C)cc(F)c4C[C@H]3C[C@@H]12 [drawing 214] | 0.3 | 0.4 | 6.2 | 104 | 0.03 (≈ 0.0535 µM) | 2 (≈ 3.57 µM) | 0.5 (≈ 0.892 µM) | 90 | 4.41
CN(C)[C@@H]1C(O)=C(C(N)=O)C(=O)[C@@]2(O)C(O)=C3C(=O)c4c(O)c(NC(=O)CNCC5CC5)cc(F)c4C[C@H]3C[C@@H]12 [drawing 218] | 0.55 | – | – | 65 | 0.03 (≈ 0.0537 µM) | 8 (≈ 14.3 µM) | 2 (≈ 3.58 µM) | 87.9 | –
CN(C)[C@@H]1C(O)=C(C(N)=O)C(=O)[C@@]2(O)C(O)=C3C(=O)c4c(O)c(NC(=O)CN5CCC5)cc(F)c4C[C@H]3C[C@@H]12 [drawing 216] | 0.07 | – | – | 85 | 0.03 (≈ 0.0551 µM) | 4 (≈ 7.35 µM) | 0.5 (≈ 0.918 µM) | 87.1 | –
